# Assay results from US9896441B2 (Lycera Corporation, priority 2014, dated 2018).
# How the values were obtained:
# RORγ-LBD = target: T1, RORγ-LBD (Homo sapiens, UniProt P51449); assay: RORγ-Ligand Binding Domain (LBD) TR-FRET Assay; format: biochemical; details: for TR-FRET Assay Max Response: maximum response;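 on TR-FRET Assay Max Response: 665/615 nm signal ratio set to 100 without ursolic acid or test compound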
# T1 construct: made in house; host or cells: SF9 cells (baculovirus); used as diluted lysate
# T1 sequence (P51449 269-508 limits assumed): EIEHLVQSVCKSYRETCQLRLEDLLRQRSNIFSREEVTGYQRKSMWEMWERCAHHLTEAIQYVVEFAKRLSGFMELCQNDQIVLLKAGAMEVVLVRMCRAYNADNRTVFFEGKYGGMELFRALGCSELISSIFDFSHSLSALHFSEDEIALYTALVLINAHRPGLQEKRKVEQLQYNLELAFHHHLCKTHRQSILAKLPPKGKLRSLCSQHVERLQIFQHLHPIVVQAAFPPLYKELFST
# Outline: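 TR-FRET read-out using a biotin-tagged SRC1 coactivator LXXLL peptide (200 nM final), with the antagonist ursolic acid present at 2 μM final. Receptor is His-tagged LBD expressed in SF9 cells, ~3 nM final in pH 7.0 Tris/KCl/EDTA/DTT/BSA buffer; compounds in 1% DMSO final.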
# Gal4-RORγ-LBD = target: T2, Gal4-RORγ-LBD (Homo sapiens, UniProt P51449); assay: Gal4-RORγ Luciferase Reporter Assay in HEK-293T Cells; format: cell-based; details: HEK-293 cells; for Gal4-RORγ Assay Max Response: maximum response
# T2 construct: expressed in transfected cells
# T2 sequence (P51449 269-508 limits assumed): T1 sequence (P51449 269-508 limits assumed)
# Outline: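 Max Response was taken as the upper plateau of a 4-parameter logistic fit of luciferase signal, normalized to 100 for wells without ursolic acid or compound. Transiently Gal4-RORγ-LBD/Gal4-luc transfected HEK-293 cells carrying […] ursolic acid were incubated with test compounds (0.2% DMSO) overnight at 37 °C and read with One-Glo.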
# [1] = luciferase reporter, with ursolic acid
# [2] = luciferase reporter, in presence of ursolic acid
EC50 (RORγ-LBD; RORγ-LBD TR-FRET) [nM],EC50 (Gal4-RORγ-LBD; [1]) [nM],EC50 (RORγ-LBD; RORγ-LBD TR-FRET assay) [nM],EC50 (Gal4-RORγ-LBD; [2]) [nM],Compound,TR-FRET Assay Max Response (RORγ-LBD; RORγ-LBD TR-FRET assay),Gal4-RORγ Assay Max Response (Gal4-RORγ-LBD; [2]),also measured
< 500,< 500,–,–,"COC(=O)CC[C@H]1CN(S(=O)(=O)c2c(OC)nn3c2CCCC3)c2cc(/C=C(\C)c3c(F)cccc3Cl)ccc2O1 [Example 86L, (S,E)-methyl 3-(6-(2-(2-chloro-6-fluorophenyl)prop-1-en-1-yl)-4-((2-methoxy-4,5,6,7-tetrahydropyrazolo[1,5-a]pyridin-3-yl)-sulfonyl)-3,4-dihydro-2H-benzo[b][1,4]oxazin-2-yl)-propanoate]",–,–,–
–,–,< 500,< 500,"C/C(=C\c1ccc2c(c1)N(S(=O)(=O)c1cccc(C(F)(F)F)c1)C[C@H](CCC(=O)N1CCC1)O2)c1c(F)cccc1Cl [Example 127H, (S,E)-1-(azetidin-1-yl)-3-(6-(2-(2-chloro-6-fluorophenyl)prop-1-en-1-yl)-4-((3-(trifluoromethyl)phenyl)sulfonyl)-3,4-dihydro-2H-benzo[b][1,4]oxazin-2-yl)propan-1-one]",*** (a value in the range of greater than 150 to 200),** (a value in the range of greater than 90 to 150),–
–,–,< 500,< 500,"COc1cc(S(=O)(=O)N2C[C@H](CNC(C)=O)Oc3c(F)cc(/C=C(\C)c4c(F)cccc4Cl)cc32)ccc1F [Example 108, (S,E)-N-((6-(2-(2-Chloro-6-fluorophenyl)prop-1-en-1-yl)-8-fluoro-4-((4-fluoro-3-methoxyphenyl)sulfonyl)-3,4-dihydro-2H-benzo[b][1,4]oxazin-2-yl)methyl)acetamide]",** (a value in the range of greater than 90 to 150),* (a value in the range of 30 to 90),–
–,–,< 500,500 to 5000,"COc1cc(S(=O)(=O)N2C[C@H](CC(C)(C)C(=O)O)Cc3ccc(/C=C(\C)c4c(F)cccc4Cl)cc32)ccc1F [Example 154C, (S,E)-3-(7-(2-(2-chloro-6-fluorophenyl)prop-1-en-1-yl)-1-((4-fluoro-3-methoxyphenyl)sulfonyl)-1,2,3,4-tetrahydroquinolin-3-yl)-2,2-dimethylpropanoic acid]",** (a value in the range of greater than 90 to 150),** (a value in the range of greater than 90 to 150),–
< 500,< 500,–,–,"COC(=O)CC[C@H]1CN(S(=O)(=O)c2cccc(OC(F)F)c2)c2cc(/C=C(\C)c3c(F)cccc3Cl)cc(F)c2O1 [Example 51, Methyl (S,E)-3-(6-(2-(2-chloro-6-fluorophenyl)prop-1-en-1-yl)-4-((3-(difluoromethoxy)phenyl)sulfonyl)-8-fluoro-3,4-dihydro-2H-benzo[b][1,4]oxazin-2-yl)propanoate]",–,–,–
500 to 5000,> 10000,–,–,"Cc1nn(C)c2ncc(S(=O)(=O)N3C[C@H](CCC(=O)O)Oc4ccc(/C=C/c5c(F)cccc5Cl)cc43)cc12 [Example 89DX, (S,E)-3-(6-(2-chloro-6-fluorostyryl)-4-((1,3-dimethyl-1H-pyrazolo[3,4-b]pyridin-5-yl)sulfonyl)-3,4-dihydro-2H-benzo[b][1,4]oxazin-2-yl)propanoic acid]",–,–,–
< 500,500 to 5000,–,–,"C/C(=C\c1cc(F)c2c(c1)N(S(=O)(=O)c1cccc(OC(F)F)c1)C[C@H](CCC(=O)O)O2)c1c(F)cccc1Cl [Example 52, (S,E)-3-(6-(2-(2-Chloro-6-fluorophenyl)prop-1-en-1-yl)-4-((3-(difluoromethoxy)phenyl)sulfonyl)-8-fluoro-3,4-dihydro-2H-benzo[b][1,4]oxazin-2-yl)propanoic acid]",–,–,–

# The remaining lines, values behind:
Compound,EC50 (RORγ-LBD; RORγ-LBD TR-FRET) [nM],EC50 (Gal4-RORγ-LBD; [1]) [nM],EC50 (RORγ-LBD; RORγ-LBD TR-FRET assay) [nM],EC50 (Gal4-RORγ-LBD; [2]) [nM],TR-FRET Assay Max Response (RORγ-LBD; RORγ-LBD TR-FRET assay),Gal4-RORγ Assay Max Response (Gal4-RORγ-LBD; [2]),also measured
"COC(=O)CC[C@H]1CN(S(=O)(=O)c2cc(C(F)(F)F)cnc2OCCCO)c2cc(/C=C/c3c(F)cccc3Cl)ccc2O1 [Example 89FD, methyl (S,E)-3-(6-(2-chloro-6-fluorostyryl)-4-((2-(3-hydroxypropoxy)-5-(trifluoromethyl)pyridin-3-yl)sulfonyl)-3,4-dihydro-2H-benzo[b][1,4]-oxazin-2-yl)propanoate]",< 500,500 to 5000,–,–,–,–,–
"CCOc1nn(CC)cc1S(=O)(=O)N1C[C@H](CCC(=O)OC)Oc2ccc(/C=C/c3cccnc3)cc21 [Example 89J, (S,E)-methyl 3-(4-((3-ethoxy-1-ethyl-1H-pyrazol-4-yl)sulfonyl)-6-(2-(pyridin-3-yl)vinyl)-3,4-dihydro-2H-benzo[b][1,4]oxazin-2-yl)propanoate]",500 to 5000,> 10000,–,–,–,–,–
"CC1(C)CCC(=Cc2ccc3c(c2)N(S(=O)(=O)c2cccc(C(F)(F)F)c2)C[C@H](CCC(=O)O)O3)CC1 [Example 95H, (S)-3-(6-((4,4-dimethylcyclo-hexylidene)methyl)-4-((3-(trifluoromethyl)phenyl)sulfonyl)-3,4-dihydro-2H-benzo[b][1,4]oxazin-2-yl)propanoic acid]",< 500,500 to 5000,–,–,–,–,–
"CCOc1nn(CC)cc1S(=O)(=O)N1C[C@H](CCC(=O)O)Oc2ccc(/C=C/c3c(F)cccc3F)cc21 [Example 89AE, (S,E)-3-(6-(2,6-difluorostyryl)-4-((3-ethoxy-1-ethyl-1H-pyrazol-4-yl)sulfonyl)-3,4-dihydro-2H-benzo[b][1,4]-oxazin-2-yl)propanoic acid]",< 500,500 to 5000,–,–,–,–,–
"O=C(O)CC[C@H]1CN(S(=O)(=O)c2cccc(C(F)(F)F)c2)c2cc(C3=CCCC3)ccc2O1 [Example 192, (S)-3-(6-(cyclopent-1-en-1-yl)-4-((3-(trifluoromethyl)phenyl)sulfonyl)-3,4-dihydro-2H-benzo[b][1,4]oxazin-2-yl)propanoic acid]",–,–,–,–,–,–,"EC50 (RORγ-LBD; with 2 μM ursolic acid (RORγ antagonist), highest test concentration 10 μM): < 500 nM; EC50 (Gal4-RORγ-LBD; ursolic acid present, luciferase readout): 500 to 5000 nM"
"CCOc1nn(CC)cc1S(=O)(=O)N1C[C@H](CCC(=O)O)Oc2ccc(/C=C/c3ncccc3Cl)cc21 [Example 89EE, (S,E)-3-(6-(2-(3-chloropyridin-2-yl)vinyl)-4-((3-ethoxy-1-ethyl-1H-pyrazol-4-yl)sulfonyl)-3,4-dihydro-2H-benzo[b][1,4]oxazin-2-yl)propanoic acid]",< 500,500 to 5000,–,–,–,–,–
"C/C(=C\c1ccc2c(c1)N(S(=O)(=O)c1cc(C(F)(F)F)ccc1OCCO)C[C@H](CCC(=O)N1CCC(C(=O)O)CC1)O2)c1c(F)cccc1Cl [Example 129M, (S,E)-1-(3-(6-(2-(2-chloro-6-fluorophenyl)-prop-1-en-1-yl)-4-((2-(2-hydroxyethoxy)-5-(trifluoromethyl)phenyl)sulfonyl)-3,4-dihydro-2H-benzo[b][1,4]oxazin-2-yl)propanoyl)piperidine-4-carboxylic acid]",–,–,< 500,500 to 5000,*** (a value in the range of greater than 150 to 200),** (a value in the range of greater than 90 to 150),–
"C/C(=C\c1ccc2c(c1)C(S(=O)(=O)c1cccc(C(F)(F)F)c1)CC(CN)O2)c1c(F)cccc1Cl (stereo not drawn) [Example 180, (E)-(6-(2-(2-Chloro-6-fluorophenyl)prop-1-en-1-yl)-4-((3-(trifluoromethyl)phenyl)sulfonyl)chroman-2-yl)methanamine]",–,–,< 500,500 to 5000,*** (a value in the range of greater than 150 to 200),* (a value in the range of 30 to 90),–
"CCOc1nn(CC)cc1S(=O)(=O)N1C[C@H](CCC(=O)OC)Oc2ccc(/C=C/c3ccc(Cl)cc3)cc21 [Example 89DA, methyl (S,E)-3-(6-(4-chlorostyryl)-4-((3-ethoxy-1-ethyl-1H-pyrazol-4-yl)sulfonyl)-3,4-dihydro-2H-benzo[b][1,4]oxazin-2-yl)propanoate]",> 10000,> 10000,–,–,–,–,–
